Test results from ChEMBL document CHEMBL1156180, “Synthesis and bioluminescence-inducing properties of autoinducer (S)-4,5-dihydroxypentane-2,3-dione and its enantiomer” (Bioorg Med Chem Lett, 2010).
The source made the active and inactive calls. The calls are words filed in the database; no cut-off is given here.

Target: Autoinducer 2-binding periplasmic protein LuxP (Vibrio harveyi) (UniProt P54300)
Experiment: Induction of Vibrio harveyi BB170 LuxP sensor protein-mediated quorum sensing activity at 0.5 to 5 ug/ml by reporter bioluminescence assay

Autoinducer 2-binding periplasmic protein LuxP (Vibrio harveyi), sequence (P54300 whole entry): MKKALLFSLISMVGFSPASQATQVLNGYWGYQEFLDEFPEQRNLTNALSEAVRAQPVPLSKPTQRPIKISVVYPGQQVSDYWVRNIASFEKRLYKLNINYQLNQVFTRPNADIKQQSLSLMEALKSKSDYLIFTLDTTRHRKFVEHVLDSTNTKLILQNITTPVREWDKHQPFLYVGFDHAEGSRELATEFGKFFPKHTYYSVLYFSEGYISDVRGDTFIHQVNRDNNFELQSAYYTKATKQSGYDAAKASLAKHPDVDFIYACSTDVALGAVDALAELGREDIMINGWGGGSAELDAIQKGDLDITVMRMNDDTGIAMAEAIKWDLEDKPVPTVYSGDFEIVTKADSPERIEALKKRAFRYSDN

Structure (SMILES) | Activity
CC(=O)C(=O)[C@@H](O)CO | Active
CC(=O)C(=O)[C@H](O)CO | Active
